Assay results published in ChEMBL document CHEMBL3352076, “Synthesis of novel triazole-linked mefloquine derivatives: biological evaluation against Plasmodium falciparum” (Bioorg Med Chem Lett, 2014).

Test system: Plasmodium falciparum
Test: Antimalarial activity against chloroquine-sensitive Plasmodium falciparum NF54
Type: functional, organism-based

IC50 [µM] | Structure (SMILES)
4.8 | CC(C)N(Cc1cn(-c2cc(C(F)(F)F)nc3c(C(F)(F)F)cccc23)nn1)C(C)C
9.1 | FC(F)(F)c1cc(-n2cc(CN(Cc3ccccc3)Cc3ccccc3)nn2)c2cccc(C(F)(F)F)c2n1
3.26 | FC(F)(F)c1cc(-n2cc(CN(C3CCCCC3)C3CCCCC3)nn2)c2cccc(C(F)(F)F)c2n1
2.8 | CC(C)(C)NCc1cn(-c2cc(C(F)(F)F)nc3c(C(F)(F)F)cccc23)nn1
25.6 | FC(F)(F)c1cc(-n2cc(CN3CCN(Cc4ccccc4)CC3)nn2)c2cccc(C(F)(F)F)c2n1
1 | FC(F)(F)c1cc(-n2cc(CNC3C4CC5CC(C4)CC3C5)nn2)c2cccc(C(F)(F)F)c2n1 (stereo unspecified)
31.8 | FC(F)(F)c1cc(-n2cc(CN3CCN(C4CCCCC4)CC3)nn2)c2cccc(C(F)(F)F)c2n1
10.6 | FC(F)(F)c1cc(-n2cc(CN3CCN(Cc4ccncc4)CC3)nn2)c2cccc(C(F)(F)F)c2n1
1.3 | FC(F)(F)c1cc(-n2cc(CN3CCN(Cc4c[nH]c5ccccc45)CC3)nn2)c2cccc(C(F)(F)F)c2n1
14.1 | FC(F)(F)c1cc(-n2cc(CN3CCN(C4C5CC6CC(C5)CC4C6)CC3)nn2)c2cccc(C(F)(F)F)c2n1 (stereo unspecified)

Structure (SMILES) | IC50 [µM]
O[C@@H](c1cc(C(F)(F)F)nc2c(C(F)(F)F)cccc12)[C@H]1CCCCN1 [(S,R)-MEFLOQUINE] | 20
